This passage reports Ki and IC90 results from patent USRE37781E1, “Substituted cyclic carbonyls and derivatives thereof useful as retroviral protease inhibitors” (DuPont Pharmaceuticals Company, priority 1991, dated 2002).

In brackets after ≈: the same amount, converted by molar mass. Where two headings read alike, the source gives them in different places.

Assay [1] deals with single-chain tethered dimer of HIV protease (Human immunodeficiency virus 1, UniProt P04585). Put plainly: biochemical. It counts as biochemical. More on the design: fused on or other part: A second copy of the same protease unit is joined to the first by a short peptide tether, giving one polypeptide.
The subject of another assay is HIV-1 (RF) in MT-2 cells. As to the kind of experiment: microbe, parasite or virus in culture. It counts as cell-based. In a few lines:
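HIV-1 laboratory strains (RF, MN, IIIB) grown in H9 cells in RPMI 1640 with 5% FCS; infections in MT-2 cells. Viral RNA quantified by hybridization with biotinylated gag/pol capture probes on streptavidin plates and alkaline phosphatase-conjugated reporter probes; BH10 gag-pol in vitro transcripts serve as RNA standards.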

Setting [2] is: read-out: HPLC K1, Table 2d, class symbols.
The mark [3] stands for this setting: Human immunodeficiency virus 1, MT2, 48 h, Table 2d, class symbols, read-out: IC90.
Setting [4] is: Table 2d, HIV protease inhibition, HPLC method, read-out: HPLC K1.
[5] abbreviates: Table 2d, class symbols, read-out: HPLC K1.
Setting [6] is: HIV protease inhibition, HPLC method, Table 2d, read-out: HPLC K1.
The mark [7] stands for this setting: HIV RNA assay, HIV-1 infected MT-2 cells, Table 2d.

`O=C1N(Cc2ccccc2)C(Cc2ccccc2)C(O)C(O)C(Cc2ccccc2)N1CC1CC1CO` (stereo not drawn) [Example 12M]: in assay [1] (setting [2]), the Ki is less than 10 nM. In addition, the IC90 with HIV-1 (RF) in MT-2 cells (setting [3]) was less than 10 µg/mL.

With `CC(C)(CO)CCCCN1C(=O)N(CCCCC(C)(C)CO)C(Cc2ccccc2)C(O)C(O)C1Cc1ccccc1` (stereo not drawn) [15CP], in assay [1] (setting [4]), the Ki was 10 to 1000 nM. For the same molecule, in the assay on HIV-1 (RF) in MT-2 cells (Table 2d, HIV RNA assay), the IC90 entry is on record as “+++ (+++=<10 μg/mL)”.

Consider `CS(=O)(=O)CCCCCN1C(=O)N(CCCCCO)C(Cc2ccccc2)C(O)C(O)C1Cc1ccccc1` (stereo not drawn) [15VT], for which, in assay [1] (setting [5]), the Ki was less than 10 nM. The IC90 result in the assay on HIV-1 (RF) in MT-2 cells (Table 2d, class symbols) was “+++ (+++=<10 μg/mL)”.

For `N#Cc1cccc(CN2C(=O)N(Cc3ccc(O)cc3)C(Cc3ccccc3)C(O)C(O)C2Cc2ccccc2)c1` (stereo not drawn) [Example 15AQ], the Ki in assay [1] (read-out: HPLC K1, Table 2d, HIV protease inhibition, HPLC method) is less than 10 nM. The IC90 with HIV-1 (RF) in MT-2 cells (Human immunodeficiency virus 1, MT2, 48 h, Table 2d, HIV RNA assay, read-out: IC90) is less than 10 µg/mL.

As for `COc1cccc(CC2C(O)C(O)C(Cc3cccc(OC)c3)N(Cc3ccc(CO)cc3)C(=O)N2Cc2ccc(CO)cc2)c1` (stereo not drawn) [20AT], in assay [1] (Table 2i, read-out: HPLC Ki), the Ki is less than 10 nM. Besides, the IC90 entry in the assay on HIV-1 (RF) in MT-2 cells (Table 2i) is given as “+++ (+++=<10 μg/mL)”.

Turning to `O=C1N(Cc2cccc(CNOCc3ccccc3)c2)C(Cc2ccccc2)C(O)C(O)C(Cc2ccccc2)N1Cc1cccc(CNOCc2ccccc2)c1` (stereo not drawn) [Example 9F], the Ki in assay [1] (setting [5]) is 10 to 1000 nM. Further, the concentration for an effect of 90% (IC90) result in the assay with HIV-1 (RF) in MT-2 cells (Table 2d, class symbols) is reported as “+ (+=>100 μg/mL)”.

On to `O=C1N(Cc2cccc(Br)c2)C(Cc2ccccc2)C(O)C(O)C(Cc2ccccc2)N1Cc1cccc(C#CCO)c1` (stereo not drawn) [Example 9N], for which the Ki in assay [1] (setting [2]) fell in the range of 10 to 1000 nM. For the same molecule, the IC90 in the assay on HIV-1 (RF) in MT-2 cells (setting [3]) is less than 10 µg/mL.

`CC(=O)OCCCCCCN1C(=O)N(CCCCCCO)C(Cc2ccccc2)C(O)C(O)C1Cc1ccccc1` (stereo not drawn) [Example 12V]: in assay [1] (setting [2]), the Ki lay in the range of 10 to 1000 nM. Moreover, in the assay on HIV-1 (RF) in MT-2 cells (setting [3]), the IC90 was less than 10 µg/mL.

Take `O=C1N(CCCCO)C(Cc2ccccc2)C(O)C(O)C(Cc2ccccc2)N1CCCCO` (stereo not drawn) [Example 12F]: the Ki in assay [1] (setting [2]) is 10 to 1000 nM. Besides, in the assay on HIV-1 (RF) in MT-2 cells (setting [3]), the IC90 was in the range of 10 to 100 µg/mL (≈ 21.2 to 212 µM).

Consider `N#Cc1cccc(CN2C(=O)N(Cc3cccc(C#N)c3)C(Cc3ccc(F)cc3)C(O)C(O)C2Cc2ccc(F)cc2)c1` (stereo not drawn) [20O], for which the Ki in assay [1] (Table 2i, read-out: HPLC Ki) lay in the range of 10 to 1000 nM. For the same molecule, in the assay with HIV-1 (RF) in MT-2 cells (Table 2i), the IC90 entry is “+++ (+++=<10 μg/mL)”.

On to `O=C1N(Cc2ccoc2)C(Cc2ccccc2)C(O)C(O)C(Cc2ccccc2)N1Cc1coc(CO)c1` (stereo not drawn) [Example 15FR], for which the Ki in assay [1] (setting [6]) is less than 10 nM. For the same molecule, the IC90 result in the assay with HIV-1 (RF) in MT-2 cells (setting [7]) is “+++ (+++=<10 μg/mL)”.

For the molecule `C=CCN1C(Cc2ccccc2)C(O)C(O)C(Cc2ccccc2)N(CC=C)S1(=O)=O` (stereo not drawn) [23E], the Ki in assay [1] (Table 2m, read-out: HPLC Ki) is 10 to 1000 nM. Also, the IC90 entry in the assay with HIV-1 (RF) in MT-2 cells (Table 2m) is “+++ (+++=<10 μg/mL)”.

With `O=C(NCc1ccccn1)c1cccc(CN2C(=O)N(Cc3cccc(-c4cc[nH]n4)c3)C(Cc3ccccc3)C(O)C(O)C2Cc2ccccc2)c1` (stereo not drawn) [15CB], in assay [1] (setting [4]), the Ki is less than 10 nM. In addition, in the assay with HIV-1 (RF) in MT-2 cells (Table 2d, HIV RNA assay), the IC90 entry is on record as “+++ (+++=<10 μg/mL)”.

As to `O=C(NCCCCCN1C(=O)N(CCCCCNC(=O)Nc2ccccc2)C(Cc2ccccc2)C(O)C(O)C1Cc1ccccc1)Nc1ccccc1` (stereo not drawn) [15ER], in assay [1] (setting [4]), the Ki was in the range of 10 to 1000 nM. For the same molecule, the IC90 entry in the assay on HIV-1 (RF) in MT-2 cells (Table 2d, HIV RNA assay) is “++/+ (The ++/+ is used in the cases where an IC90 was determined to be >50 μg/mL)”.

Consider `O=S1(=O)N(Cc2cccc(CO)c2)C(Cc2ccccc2)C(O)C(O)C(Cc2ccccc2)N1Cc1cccc(CO)c1` (stereo not drawn) [23N], for which the Ki in assay [1] (Table 2m, read-out: HPLC Ki) is less than 10 nM. Further, in the assay on HIV-1 (RF) in MT-2 cells (Table 2m), the IC90 entry was “+++ (+++=<10 μg/mL)”.

As for `CC(C)(C)OC(=O)c1ccc(CN2C(=O)N(Cc3ccc(C(=O)OC(C)(C)C)o3)C(Cc3ccccc3)C(O)C(O)C2Cc2ccccc2)o1` (stereo not drawn) [Example 13W], in assay [1] (setting [5]), the Ki was more than 1000 nM. Further, in the assay with HIV-1 (RF) in MT-2 cells (Table 2d, class symbols), the concentration for an effect of 90% (IC90) entry is recorded as “+++ (+++=<10 μg/mL)”.

On to `O=S1(=O)N(Cc2cccc(C=NO)c2)C(Cc2ccccc2)C(O)C(O)C(Cc2ccccc2)N1Cc1cccc(C=NO)c1` (stereo not drawn) [23S], for which, in assay [1] (Table 2m, read-out: HPLC Ki), the Ki was less than 10 nM. In addition, the IC90 result with HIV-1 (RF) in MT-2 cells (Table 2m) is “+++ (+++=<10 μg/mL)”.

For the molecule `Cl.NCC(=O)Nc1cccc(CN2C(=O)N(Cc3ccc(CO)cc3)C(Cc3ccccc3)C(O)C(O)C2Cc2ccccc2)c1` (stereo not drawn) [15XT], in assay [1] (setting [4]), the Ki was less than 10 nM. In addition, the IC90 entry with HIV-1 (RF) in MT-2 cells (Table 2d, HIV RNA assay) is listed as “+++ (+++=<10 μg/mL)”.

Consider `O=S1(=O)N(CCCCCO)C(Cc2ccccc2)C(O)C(O)C(Cc2ccccc2)N1Cc1ccc2ccccc2c1` (stereo not drawn) [23AF], for which, in assay [1] (Table 2m, read-out: HPLC Ki), the Ki is less than 10 nM. The IC90 entry in the assay with HIV-1 (RF) in MT-2 cells (Table 2m) is reported as “+++ (+++=<10 μg/mL)”.

Take `COC(=O)NCCCCCN1C(=O)N(CCCCCNC(=O)OC)C(Cc2ccccc2)C(O)C(O)C1Cc1ccccc1` (stereo not drawn) [15EQ]: in assay [1] (setting [4]), the Ki was in the range of 10 to 1000 nM. Besides, in the assay on HIV-1 (RF) in MT-2 cells (Table 2d, HIV RNA assay), the IC90 entry is given as “++/+ (The ++/+ is used in the cases where an IC90 was determined to be >50 μg/mL)”.

For `O=C(NCCCCCN1C(=O)N(CCCCCNC(=O)c2cccc(C(F)(F)F)c2)C(Cc2ccccc2)C(O)C(O)C1Cc1ccccc1)c1cccc(C(F)(F)F)c1` (stereo not drawn) [15FJ], in assay [1] (setting [6]), the Ki is 10 to 1000 nM. Besides, the IC90 entry in the assay on HIV-1 (RF) in MT-2 cells (setting [7]) is given as “++/+ (The ++/+ is used in the cases where an IC90 was determined to be >50 μg/mL)”.

As usually defined, the IC90 is the point of the concentration-response curve where the effect stands at 90%.
